pIC50: −log10 of the molar value.
Molecular target: Methionine aminopeptidase (Staphylococcus aureus (strain MW2), UniProt P0A079)
Assay: MetAP Inhibition Assay
Conditions: pH 7.5; 22 °C
Method: The MetAP reaction with Co2+ as a cofactor is coupled to a prolyl aminopeptidase (ProAP) using Met-Pro-p-nitroanilide as substrate. MetAP-catalyzed cleavage of the N-terminal methionine produces prolyl-p-nitroanilide, which is rapidly hydrolyzed by ProAP to release a chromogenic product. This allows the MetAP reaction to be continuously monitored at 405 nm on a UVVIS spectrophotometer. The initial rate was calculated from the early part of the reaction progress curve (<5 min). Activity assays were performed in triplicate using eight to 16 concentrations of substrate or inhibitor.

Chain of Methionine aminopeptidase (P0A079 whole entry): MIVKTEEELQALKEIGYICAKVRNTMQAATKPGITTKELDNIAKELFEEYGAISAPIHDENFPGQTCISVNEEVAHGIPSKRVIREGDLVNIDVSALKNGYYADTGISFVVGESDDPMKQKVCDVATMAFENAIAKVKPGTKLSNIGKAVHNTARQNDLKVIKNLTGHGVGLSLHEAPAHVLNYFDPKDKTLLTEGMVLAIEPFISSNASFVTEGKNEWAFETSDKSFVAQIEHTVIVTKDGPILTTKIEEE

Row | Structure (SMILES) | pIC50
1 | Cn1cnnc1SCc1ccccc1 [1,2,4-triazole derivative.] | < 4.00
2 | Nc1n[nH]c(SCc2ccccc2)n1 [1,2,4-triazole derivative.] | 6.22
3 | CSCC[C@H](N)c1nnc(SCc2ccccc2)[nH]1 [1,2,4-triazole derivative.] | 7.36

— BindingDB's records for doi:10.1016/s0022-2836(03)00862-3 (Morphochem, 2003)
